Reference: publication PMC11174122 (Molecules, 2024)

Legend:
PC-3M = experiment: MTT cytotoxic activity assay, PC-3M; format: cell-based; settings: Homo sapiens, read-out: IC50 PC-3M, 48 h
Procedure: (§1) MCF-7, Hela, and HUCEC were cultured in DMEM (Beijing Solarbio) containing 10% FBS, 100 U/mL penicillin, and […] at 37 °C and 5% CO2. Bel-7402, A549, PC-3M were cultured in RPMI-1640 (Beijing Solarbio) media supplemented with 10% FBS (Wuhan Punuosai Life Science and Technology Co., Ltd., Wuhan, China), 100 U/mL penicillin, and […] at 37 °C and 5% CO2. MTT (Beijing Solarbio) was prepared with PBS at a concentration of 5 mg/mL. All tested drugs were prepared in a solution with a concentration of 20 mM, with dimethyl sulfoxide as the solvent.
(§2) The cells were inoculated into 96-well plates at a density of 5 × 10^3 cells/well. When the cell fusion reached 70–80%, the drug was treated for 48 h. Subsequently, 20 μL MTT was added to each well and incubated at 37 °C with 5% CO2 for 4 h. After that, the medium was discarded and 150 μL DMSO was added to each well. The absorbance was measured at 490 nm with an enzymoleter.

MCF-7 = experiment: MTT cytotoxic activity assay, MCF-7; format: cell-based; settings: Homo sapiens, MCF7, 48 h
Procedure: as §1, §2

Bel-7402 = experiment: MTT cytotoxic activity assay, Bel-7402; format: cell-based; settings: Homo sapiens, 48 h
Procedure: as §1, §2

Hela = experiment: MTT cytotoxic activity assay, Hela; format: cell-based, human; settings: Homo sapiens, HeLa; MTT, 48 h
Procedure: as §1, §2

A549 = experiment: MTT cytotoxic activity assay, A549; format: cell-based; settings: Homo sapiens, 48 h
Procedure: as §1, §2

Row | SMILES | IC50 (PC-3M) | IC50 (MCF-7) | IC50 (Bel-7402) | IC50 (Hela) | IC50 (A549)
1 | CC(C)C[C@H](NC(=O)OC(C)(C)C)C(=O)Oc1ccc(/C=C/C(=O)c2ccc(OC(=O)[C@H](CC(C)C)NC(=O)OC(C)(C)C)cc2O)cc1 [Compound 1, (E)-4-(3-(4-(((tert-butoxycarbonyl)leucyl)oxy)-2-hydroxyphenyl)-3-oxoprop-1-en-1-yl)phenyl (tert-butoxycarbonyl)leucinate] | > 200 µM | > 200 µM | > 200 µM | > 200 µM | > 200 µM
2 | CCC(C)CC(NC(=O)OC(C)(C)C)C(=O)Oc1ccc(/C=C/C(=O)c2ccc(OC(=O)C(CC(C)CC)NC(=O)OC(C)(C)C)cc2O)cc1 (stereo not drawn) [Compound 2, (E)-4-(3-(4-((2-((tert-butoxycarbonyl)amino)-4-methylhexanoyl)oxy)-2-hydroxyphenyl)-3-oxoprop-1-en-1-yl)phenyl 2-((tert-butoxycarbonyl)amino)-4-methylhexanoate] | > 200 µM | > 200 µM | > 200 µM | > 200 µM | > 200 µM
3 | CC(C)[C@H](NC(=O)OC(C)(C)C)C(=O)Oc1ccc(/C=C/C(=O)c2ccc(OC(=O)[C@@H](NC(=O)OC(C)(C)C)C(C)C)cc2O)cc1 [Compound 3, (E)-4-(3-(4-(((tert-butoxycarbonyl)valyl)oxy)-2-hydroxyphenyl)-3-oxoprop-1-en-1-yl)phenyl (tert-butoxycarbonyl)valinate] | > 200 µM | > 200 µM | > 200 µM | > 200 µM | > 200 µM
4 | CC(C)(C)OC(=O)N1CCCC1C(=O)Oc1ccc(/C=C/C(=O)c2ccc(OC(=O)[C@@H]3CCCN3C(=O)OC(C)(C)C)cc2O)cc1 (stereo partly drawn) [Compound 4, (E)-2-(4-(3-(4-(((tert-butoxycarbonyl)prolyl)oxy)-2-hydroxyphenyl)-3-oxoprop-1-en-1-yl)phenyl) 1-(tert-butyl) pyrrolidine-1,2-dicarboxylate] | > 200 µM | > 200 µM | > 200 µM | > 200 µM | > 200 µM
5 | CN(CC(=O)Oc1ccc(/C=C/C(=O)c2ccc(OC(=O)CN(C)C(=O)OC(C)(C)C)cc2O)cc1)C(=O)OC(C)(C)C [Compound 5, (E)-4-(3-(4-((N-(tert-butoxycarbonyl)-N-methylglycyl)oxy)-2-hydroxyphenyl)-3-oxoprop-1-en-1-yl)phenyl N-(tert-butoxycarbonyl)-N-methylglycinate] | > 200 µM | > 200 µM | > 200 µM | > 200 µM | > 200 µM
6 | CC(C)(C)OC(=O)NC(C(=O)Oc1ccc(/C=C/C(=O)c2ccc(OC(=O)C(NC(=O)OC(C)(C)C)C3CCCC3)cc2O)cc1)C1CCCC1 [Compound 6, 4-((E)-3-(4-((S)-2-((tert-butoxycarbonyl)amino)-2-cyclopentylacetoxy)-2-hydroxyphenyl)-3-oxoprop-1-en-1-yl)phenyl(R)-2-((tert-butoxycarbonyl)amino)-2-cyclopentylacetate] | > 200 µM | > 200 µM | > 200 µM | > 200 µM | > 200 µM
7 | CC(C)(C)OC(=O)NC(C(=O)Oc1ccc(/C=C/C(=O)c2ccc(O)cc2O)cc1)C1CCCC1 [Compound 7, (E)-4-(3-(2,4-dihydroxyphenyl)-3-oxoprop-1-en-1-yl)phenyl(R)-2-((tert-butoxycarbonyl)amino)-2-cyclopentylacetate] | 33.2 µM | 29.8 µM | 27.9 µM | 28.7 µM | 27.4 µM
8 | CC(C)(C)OC(=O)NC(C(=O)Oc1ccc(/C=C/C(=O)c2ccc(OC(=O)C(NC(=O)OC(C)(C)C)C3CCCCC3)cc2O)cc1)C1CCCCC1 [Compound 8, 4-((E)-3-(4-((R)-2-((tert-butoxycarbonyl)amino)-2-cyclohexylacetoxy)-2-hydroxyphenyl)-3-oxoprop-1-en-1-yl)phenyl(S)-2-((tert-butoxycarbonyl)amino)-2-cyclohexylacetate] | > 200 µM | > 200 µM | > 200 µM | > 200 µM | > 200 µM
9 | C[C@H](NC(=O)OC(C)(C)C)C(=O)Oc1ccc(C(=O)/C=C/c2ccc(OC(=O)[C@@H](C)NC(=O)OC(C)(C)C)cc2)c(O)c1 [Compound 10, 4-((E)-3-(4-(((tert-butoxycarbonyl)-D-alanyl)oxy)phenyl)acryloyl)-3-hydroxyphenyl (tert-butoxycarbonyl)-L-alaninate] | > 200 µM | > 200 µM | > 200 µM | > 200 µM | > 200 µM
10 | CC(NC(=O)OC(C)(C)C)C(=O)Oc1ccc(C=CC(=O)c2ccc(O)cc2O)cc1 [Compound 11, (E)-4-(3-(2,4-dihydroxyphenyl)-3-oxoprop-1-en-1-yl)phenyl(tert-butoxycarbonyl)-D-alaninate] | 122 µM | 160 µM | 87.6 µM | 99.9 µM | 100 µM
11 | CC(C)(C)OC(=O)NC(CCc1ccccc1)C(=O)Oc1ccc(C(=O)/C=C/c2ccc(OC(=O)[C@H](CCc3ccccc3)NC(=O)OC(C)(C)C)cc2)c(O)c1 (stereo partly drawn) [Compound 12, 4-((E)-3-(4-((2-((tert-butoxycarbonyl)amino)-4-phenylbutanoyl)oxy)-2-hydroxyphenyl)-3-oxoprop-1-en-1-yl)phenyl(2S)-2-((tert-butoxycarbonyl)amino)-4-phenylbutanoate] | > 200 µM | > 200 µM | > 200 µM | > 200 µM | > 200 µM
12 | CC(C)(C)OC(=O)N[C@@H](CCc1ccccc1)C(=O)Oc1ccc(/C=C/C(=O)c2ccc(O)cc2O)cc1 [Compound 13, (E)-4-(3-(2,4-dihydroxyphenyl)-3-oxoprop-1-en-1-yl)phenyl(S)-2-((tert-butoxycarbonyl)amino)-4-phenylbutanoate] | 37.4 µM | 60.5 µM | 35.3 µM | 29.2 µM | 48.9 µM
13 | CC(C)(C)OC(=O)N[C@@H](Cc1ccccc1Br)C(=O)Oc1ccc(C(=O)/C=C/c2ccc(OC(=O)[C@@H](Cc3ccccc3Br)NC(=O)OC(C)(C)C)cc2)c(O)c1 [Compound 14, 4-((E)-3-(4-(((S)-3-(2-bromophenyl)-2-((tert-butoxycarbonyl)amino)propanoyl)oxy)-2-hydroxyphenyl)-3-oxoprop-1-en-1-yl)phenyl(R)-3-(2-bromophenyl)-2-((tert-butoxycarbonyl)amino)propanoate] | > 200 µM | > 200 µM | > 200 µM | > 200 µM | > 200 µM
14 | CC(C)(C)OC(=O)N[C@H](Cc1ccccc1Br)C(=O)Oc1ccc(/C=C/C(=O)c2ccc(O)cc2O)cc1 [Compound 15, (E)-4-(3-(2,4-dihydroxyphenyl)-3-oxoprop-1-en-1-yl)phenyl(R)-3-(2-bromophenyl)-2-((tert-butoxycarbonyl)amino)propanoate] | 30.2 µM | 50.9 µM | 38.4 µM | 27.4 µM | 42.6 µM
15 | CC(C)(C)OC(=O)N[C@@H](Cc1ccccc1Cl)C(=O)Oc1ccc(C(=O)/C=C/c2ccc(OC(=O)[C@@H](Cc3ccccc3Cl)NC(=O)OC(C)(C)C)cc2)c(O)c1 [Compound 16, 4-((E)-3-(4-(((S)-2-((tert-butoxycarbonyl)amino)-3-(2-chlorophenyl)propanoyl)oxy)-2-hydroxyphenyl)-3-oxoprop-1-en-1-yl)phenyl(R)-2-((tert-butoxycarbonyl)amino)-3-(2-chlorophenyl)propanoate] | > 200 µM | > 200 µM | > 200 µM | > 200 µM | > 200 µM
